Experimental data: ChEMBL document CHEMBL3991601, “The target landscape of clinical kinase drugs” (Science, 2017)
The source made the active and inactive calls.

Legend:
[1] = biological target: Protein kinase C delta type (Homo sapiens, UniProt Q05655)
[2] = biological target: T1, Mitogen-activated protein kinase kinase kinase 6 (Homo sapiens, UniProt O95382)
T1 sequence (O95382 whole entry): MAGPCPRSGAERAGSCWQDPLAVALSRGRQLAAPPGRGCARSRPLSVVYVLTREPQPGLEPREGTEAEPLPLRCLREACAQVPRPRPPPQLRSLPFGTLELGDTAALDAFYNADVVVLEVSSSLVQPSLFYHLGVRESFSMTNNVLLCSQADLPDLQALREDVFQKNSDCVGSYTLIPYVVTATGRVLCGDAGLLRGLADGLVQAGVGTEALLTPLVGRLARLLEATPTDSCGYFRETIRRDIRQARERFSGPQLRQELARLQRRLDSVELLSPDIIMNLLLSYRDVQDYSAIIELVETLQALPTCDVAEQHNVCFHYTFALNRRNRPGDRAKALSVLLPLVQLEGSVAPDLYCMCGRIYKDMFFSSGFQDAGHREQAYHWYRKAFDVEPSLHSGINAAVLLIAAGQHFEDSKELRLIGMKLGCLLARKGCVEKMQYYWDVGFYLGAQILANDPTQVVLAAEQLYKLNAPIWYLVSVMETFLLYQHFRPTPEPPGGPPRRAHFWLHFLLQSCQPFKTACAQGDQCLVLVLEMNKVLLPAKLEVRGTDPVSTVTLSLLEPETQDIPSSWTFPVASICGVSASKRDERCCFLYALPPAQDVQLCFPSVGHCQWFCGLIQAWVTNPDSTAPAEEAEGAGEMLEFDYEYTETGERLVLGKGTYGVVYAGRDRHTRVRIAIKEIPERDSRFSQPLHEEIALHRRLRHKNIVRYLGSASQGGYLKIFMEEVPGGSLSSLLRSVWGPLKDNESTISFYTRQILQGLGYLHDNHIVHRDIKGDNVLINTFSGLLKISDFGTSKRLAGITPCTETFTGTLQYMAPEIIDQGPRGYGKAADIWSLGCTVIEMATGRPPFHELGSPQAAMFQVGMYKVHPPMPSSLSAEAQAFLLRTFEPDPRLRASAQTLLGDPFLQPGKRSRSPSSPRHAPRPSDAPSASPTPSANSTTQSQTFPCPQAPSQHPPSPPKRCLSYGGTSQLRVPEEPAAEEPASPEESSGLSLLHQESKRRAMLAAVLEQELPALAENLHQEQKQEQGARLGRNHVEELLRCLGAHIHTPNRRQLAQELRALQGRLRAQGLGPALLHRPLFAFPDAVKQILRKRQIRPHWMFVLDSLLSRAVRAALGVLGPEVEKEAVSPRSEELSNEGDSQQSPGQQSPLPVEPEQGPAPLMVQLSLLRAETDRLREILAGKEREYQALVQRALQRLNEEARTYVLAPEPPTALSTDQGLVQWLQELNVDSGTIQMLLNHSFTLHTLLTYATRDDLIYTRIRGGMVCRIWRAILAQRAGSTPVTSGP

Ephrin type-B receptor 3 = biological target: T2, Ephrin type-B receptor 3 (Homo sapiens, UniProt P54753)
T2 sequence (P54753 whole entry): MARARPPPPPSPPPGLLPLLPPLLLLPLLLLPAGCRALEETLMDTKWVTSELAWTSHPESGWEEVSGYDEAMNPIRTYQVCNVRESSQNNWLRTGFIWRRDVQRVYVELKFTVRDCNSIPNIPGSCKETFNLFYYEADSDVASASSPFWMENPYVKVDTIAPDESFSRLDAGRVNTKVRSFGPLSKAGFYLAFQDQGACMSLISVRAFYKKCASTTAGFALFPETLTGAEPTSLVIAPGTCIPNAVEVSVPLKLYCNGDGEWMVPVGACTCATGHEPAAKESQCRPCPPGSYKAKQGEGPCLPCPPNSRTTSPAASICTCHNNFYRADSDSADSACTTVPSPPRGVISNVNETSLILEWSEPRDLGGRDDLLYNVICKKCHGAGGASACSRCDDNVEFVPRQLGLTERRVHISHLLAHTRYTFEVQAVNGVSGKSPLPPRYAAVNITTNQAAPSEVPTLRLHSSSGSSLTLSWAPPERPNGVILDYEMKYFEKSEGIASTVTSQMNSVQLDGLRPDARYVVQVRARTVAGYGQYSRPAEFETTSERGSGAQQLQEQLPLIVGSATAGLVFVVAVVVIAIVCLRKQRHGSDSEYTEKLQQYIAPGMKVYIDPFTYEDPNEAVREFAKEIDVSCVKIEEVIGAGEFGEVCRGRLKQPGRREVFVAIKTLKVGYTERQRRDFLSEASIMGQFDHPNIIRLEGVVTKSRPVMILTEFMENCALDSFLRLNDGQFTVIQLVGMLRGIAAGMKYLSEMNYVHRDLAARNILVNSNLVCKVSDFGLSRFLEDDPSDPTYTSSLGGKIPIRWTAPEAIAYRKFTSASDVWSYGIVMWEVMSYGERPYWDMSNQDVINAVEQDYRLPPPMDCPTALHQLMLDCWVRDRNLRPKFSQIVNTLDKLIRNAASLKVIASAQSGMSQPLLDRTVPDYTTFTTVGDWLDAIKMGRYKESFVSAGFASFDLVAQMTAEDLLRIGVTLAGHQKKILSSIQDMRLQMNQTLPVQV

[3] = biological target: T3, General transcription and DNA repair factor IIH helicase subunit XPD (Homo sapiens, UniProt P18074); settings: read-out: Kd apparent; k-562, colo 205, sk-n-be(2) and mv-4-11
T3 sequence (P18074 whole entry): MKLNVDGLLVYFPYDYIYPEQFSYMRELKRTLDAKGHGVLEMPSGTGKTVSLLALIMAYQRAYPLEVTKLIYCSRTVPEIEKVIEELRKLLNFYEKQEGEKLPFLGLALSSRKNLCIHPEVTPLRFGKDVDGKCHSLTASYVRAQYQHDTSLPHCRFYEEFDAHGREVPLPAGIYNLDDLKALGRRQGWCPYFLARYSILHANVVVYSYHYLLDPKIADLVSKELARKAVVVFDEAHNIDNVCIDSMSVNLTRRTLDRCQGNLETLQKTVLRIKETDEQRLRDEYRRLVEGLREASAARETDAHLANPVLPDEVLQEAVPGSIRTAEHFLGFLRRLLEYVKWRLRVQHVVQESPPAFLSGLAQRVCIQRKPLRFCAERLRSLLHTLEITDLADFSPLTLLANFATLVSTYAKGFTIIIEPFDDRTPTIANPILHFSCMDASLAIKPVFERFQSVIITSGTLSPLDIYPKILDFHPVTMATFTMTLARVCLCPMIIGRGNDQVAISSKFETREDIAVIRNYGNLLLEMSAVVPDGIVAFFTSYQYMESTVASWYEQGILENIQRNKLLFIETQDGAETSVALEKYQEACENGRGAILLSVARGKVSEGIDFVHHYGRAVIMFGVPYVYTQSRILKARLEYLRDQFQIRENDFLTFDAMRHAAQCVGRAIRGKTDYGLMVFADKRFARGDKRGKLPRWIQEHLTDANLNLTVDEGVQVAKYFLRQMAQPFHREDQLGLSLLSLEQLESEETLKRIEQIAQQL
Further: in the data inactive means no Kd found up to 30 µM.

Sequence of Protein kinase C delta type (Q05655 whole entry): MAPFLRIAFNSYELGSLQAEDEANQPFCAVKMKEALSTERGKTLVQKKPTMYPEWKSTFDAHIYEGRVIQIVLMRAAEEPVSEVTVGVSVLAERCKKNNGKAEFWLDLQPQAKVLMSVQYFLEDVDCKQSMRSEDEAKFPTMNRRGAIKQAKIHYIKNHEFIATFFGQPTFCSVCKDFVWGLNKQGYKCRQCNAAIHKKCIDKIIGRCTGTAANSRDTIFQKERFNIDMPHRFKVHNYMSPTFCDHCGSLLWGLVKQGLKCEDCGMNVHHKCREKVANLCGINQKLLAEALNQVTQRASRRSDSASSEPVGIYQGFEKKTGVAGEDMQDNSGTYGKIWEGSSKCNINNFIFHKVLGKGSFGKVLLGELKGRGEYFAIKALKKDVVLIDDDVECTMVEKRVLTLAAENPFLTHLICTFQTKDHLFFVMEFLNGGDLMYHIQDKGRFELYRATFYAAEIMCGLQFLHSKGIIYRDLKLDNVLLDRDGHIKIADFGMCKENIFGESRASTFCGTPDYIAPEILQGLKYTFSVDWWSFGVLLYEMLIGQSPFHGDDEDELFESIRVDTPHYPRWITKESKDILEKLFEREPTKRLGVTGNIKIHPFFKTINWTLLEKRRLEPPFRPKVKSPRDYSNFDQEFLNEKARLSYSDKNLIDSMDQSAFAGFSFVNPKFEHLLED

| SMILES | Kd [1] | Kd [2] | Kd (Ephrin type-B receptor 3) | Kd [3] |
| --- | --- | --- | --- | --- |
| O=c1[nH]c([C@@H]2CCCN2)nc2c1oc1ccc(Cl)cc12 | > 30 µM (inactive) | > 30 µM (inactive) | > 30 µM (inactive) | > 30 µM (inactive) |
| Cn1cc(-c2[nH]c3cc(NC(=O)[C@H](N)C4CCCCC4)cc4c3c2C=NNC4=O)cn1 | > 30 µM (inactive) | > 30 µM (inactive) | > 30 µM (inactive) | > 30 µM (inactive) |
| CCN1CCN(Cc2ccc(Nc3ncc(F)c(-c4cc(F)c5nc(C)n(C(C)C)c5c4)n3)nc2)CC1 [ABEMACICLIB] | 0.795 µM (active) | > 30 µM (inactive) | > 30 µM (inactive) | > 30 µM (inactive) |
| Cc1c(NC(=O)OC[C@@H]2COCCN2)cn2ncnc(Nc3ccc4c(cnn4Cc4cccc(F)c4)c3)c12 [AC-480] | > 30 µM (inactive) | > 30 µM (inactive) | > 30 µM (inactive) | > 30 µM (inactive) |
| C=CCn1c(=O)c2cnc(Nc3ccc(N4CCN(C)CC4)cc3)nc2n1-c1cccc(C(C)(C)O)n1 [ADAVOSERTIB] | > 30 µM (inactive) | > 30 µM (inactive) | > 30 µM (inactive) | > 30 µM (inactive) |
| CN(C)C/C=C/C(=O)Nc1cc2c(Nc3ccc(F)c(Cl)c3)ncnc2cc1O[C@H]1CCOC1 [AFATINIB] | – | – | – | > 30 µM (inactive) |
| CCc1cc2c(cc1N1CCC(N3CCOCC3)CC1)C(C)(C)c1[nH]c3cc(C#N)ccc3c1C2=O [ALECTINIB] | > 30 µM (inactive) | > 30 µM (inactive) | > 30 µM (inactive) | > 30 µM (inactive) |
| COc1ccc2c(OCc3nnc4ccc(-c5ccccc5)nn34)ccnc2c1 [AMG-208] | > 30 µM (inactive) | > 30 µM (inactive) | > 30 µM (inactive) | > 30 µM (inactive) |
| S=C(NCc1ccc2c(c1)OCO2)N1CCN(c2ncnc3c2oc2ccccc23)CC1 [AMUVATINIB] | > 30 µM (inactive) | > 30 µM (inactive) | > 30 µM (inactive) | > 30 µM (inactive) |
| NC[C@@](O)(c1ccc(Cl)cc1)c1ccc(-c2cn[nH]c2)cc1 [AT-13148] | 0.044 µM (active) | > 30 µM (inactive) | > 30 µM (inactive) | > 30 µM (inactive) |
| Cc1cc(Nc2nc(N[C@@H](C)c3ncc(F)cn3)ncc2Cl)n[nH]1 [AZD-1480] | > 30 µM (inactive) | > 30 µM (inactive) | > 30 µM (inactive) | > 30 µM (inactive) |
| CCN(CCCOc1ccc2c(Nc3cc(CC(=O)Nc4cccc(F)c4)n[nH]3)ncnc2c1)CCOP(=O)(O)O [BARASERTIB] | > 30 µM (inactive) | > 30 µM (inactive) | > 30 µM (inactive) | > 30 µM (inactive) |
| COc1ccc(-c2ccc3ncc4c(c3c2)n(-c2ccc(N3CCNCC3)c(C(F)(F)F)c2)c(=O)n4C)cn1 [BGT-226 FREE BASE] | > 30 µM (inactive) | > 30 µM (inactive) | > 30 µM (inactive) | > 30 µM (inactive) |
| COc1cccc(Nc2ncnn3ccc(CN4CC[C@@H](N)[C@H](O)C4)c23)c1 [BMS-690514] | 1.74 µM (active) | > 30 µM (inactive) | – | – |
| C[C@@]1(C(=O)Nc2ccc(F)nc2)CCCN1c1nc(Nc2cc(C3CC3)n[nH]2)c2cccn2n1 [BMS-754807] | – | – | – | > 30 µM (inactive) |
| CCOc1ccn(-c2ccc(F)cc2)c(=O)c1C(=O)Nc1ccc(Oc2ccnc(N)c2Cl)c(F)c1 [BMS-777607] | > 30 µM (inactive) | – | > 30 µM (inactive) | – |
| COc1cc2nccc(Oc3ccc(NC(=O)C4(C(=O)Nc5ccc(F)cc5)CC4)cc3)c2cc1OC [CABOZANTINIB] | > 30 µM (inactive) | > 30 µM (inactive) | > 30 µM (inactive) | > 30 µM (inactive) |
| CC1(COc2ccc3c(c2)ncn3-c2ccc3cccc(N4CCC(N)CC4)c3n2)COC1 [CRENOLANIB] | – | > 30 µM (inactive) | > 30 µM (inactive) | > 30 µM (inactive) |
| O=S(=O)(c1cccc2cnccc12)N1CCCNCC1 [FASUDIL] | – | > 30 µM (inactive) | > 30 µM (inactive) | > 30 µM (inactive) |
| C[C@]1(O)C[C@@H](c2nc(-c3ccc4ccc(-c5ccccc5)nc4c3)c3c(N)nccn32)C1 [LINSITINIB] | – | > 30 µM (inactive) | > 30 µM (inactive) | > 30 µM (inactive) |
| N#CCNC(=O)c1ccc(-c2ccnc(Nc3ccc(N4CCOCC4)cc3)n2)cc1 [MOMELOTINIB] | > 30 µM (inactive) | – | > 30 µM (inactive) | – |
| CC1(C)CNc2cc(NC(=O)c3cccnc3NCc3ccncc3)ccc21 [MOTESANIB] | – | – | – | > 30 µM (inactive) |
| C=CC(=O)Nc1cc(Nc2nccc(-c3cn(C)c4ccccc34)n2)c(OC)cc1N(C)CCN(C)C [OSIMERTINIB] | > 30 µM (inactive) | > 30 µM (inactive) | > 30 µM (inactive) | – |
| FC(F)(F)c1ccc(CNc2ccc(Cc3c[nH]c4ncc(Cl)cc34)cn2)cn1 [PEXIDARTINIB] | > 30 µM (inactive) | > 30 µM (inactive) | > 30 µM (inactive) | – |
| CN(c1ncccc1CNc1nc(Nc2ccc3c(c2)CC(=O)N3)ncc1C(F)(F)F)S(C)(=O)=O [PF-00562271] | – | > 30 µM (inactive) | > 30 µM (inactive) | 2.64 µM (active) |
| Cn1cnc2c(F)c(Nc3ccc(Br)cc3Cl)c(C(=O)NOCCO)cc21 [SELUMETINIB] | – | – | – | > 30 µM (inactive) |
| CC(C)(O)CC(=O)NCCn1ccc2ncnc(Nc3ccc(Oc4cccc(C(F)(F)F)c4)c(Cl)c3)c21 [TAK-285] | > 30 µM (inactive) | > 30 µM (inactive) | > 30 µM (inactive) | – |
| COc1cc2c(N3CCN(C(=O)Nc4ccc(OC(C)C)cc4)CC3)ncnc2cc1OCCCN1CCCCC1 [TANDUTINIB] | – | – | – | > 30 µM (inactive) |
